From publication PMC7247319, “The mitochondria-targeted peptide SS-31 binds lipid bilayers and modulates surface electrostatics as a key component of its mechanism of action” (The Journal of Biological Chemistry, 2020)
Where a SMILES comes first, the peptide text is derived from it. [ ]: non-standard residue; d: D form. Dmt = Cc1cc(O)cc(C)c1C[C@H](N)C(=O)O

Test system: LUVs containing 20% TOCL or POPG in POPC background
Test: Fluorescent reporters of lipid dynamics and packing (DPH anisotropy, laurdan and prodan GP)
Method: Figure 4. Effects of SS-31 on structural properties of model membranes. […] LUVs composed of 20% anionic lipid (TOCL, MLCL, or POPG) in POPC background were measured in the absence or presence of peptide ([SS-31]/[lipid]^eff = 1:5) as indicated. A, synchrotron SAXS measurements showing background-subtracted scattering density profiles for LUVs in the absence (black) or presence (red) of SS-31. B, ^31P solid-state NMR spectra of LUVs in the absence (bottom spectra) or presence (top spectra) of SS-31. C, SS-31 alters lipid packing interactions. Shown are changes in laurdan and prodan GP values (ΔGP) with increasing [SS-31] for LUVs containing 20% TOCL or POPG in POPC background as indicated. Data and fits in gray show SS-31 fractional saturation (calculated from Fig. 2A, [lipid]^eff = 25 μM). […]
We therefore addressed whether SS-31 altered lipid interactions within these model bilayers. […] Using 1,6-diphenyl-1,3,5-hexatriene (DPH) anisotropy (〈r〉^DPH) as a readout of the fluid dynamics of hydrocarbon tails, we observed no effect of SS-31 in TOCL- or POPG-containing membranes (Fig. S10, D and E). […]
Steady-state fluorescence measurements were performed with a Fluorolog 3-22 spectrofluorometer (HORIBA Jobin-Yvon) equipped with photon-counting electronics, double-grating excitation and emission monochromators, automated Glan–Thompson polarizers, and a 450-watt xenon lamp. […]

Cc1cc(O)cc(C)c1C[C@H](NC(=O)[C@H](N)CCCNC(=N)N)C(=O)N[C@@H](CCCCN)C(=O)N[C@@H](Cc1ccccc1)C(N)=O [SS-31, D-Arg-2′6′-dimethyl-Tyr-Lys-Phe-NH2] (H-[dR][Dmt]KF-NH2)
effect on DPH anisotropy (fluid dynamics of hydrocarbon tails) (TOCL- or POPG-containing membranes): no effect
effect on laurdan and prodan generalized polarization (GP^LAU, GP^PRO) (increasing [SS-31], 20% TOCL or POPG LUVs, n = 3): modest, yet repeatable and saturable, increases
